This experiment is described as follows: effect of including leucine in the patch formula on appetite levels. In kind it is in vivo. Conditions: inclusion of leucine in the formula of the adhesive matrix; found experimentally, no method or data given. An excerpt: In an exemplary embodiment, adhesive matrix 130 may further include an anti-inflammatory. While dimethyl sulfoxide and menthol may in and of themselves act as anti-inflammatories, additional ingredients acting as dedicated anti-inflammatories may be added. For the purposes of this specification, “anti-inflammatory” is used to mean any medication, compound, or ingredient recognized by the FDA as useful for anti-inflammatory purposes. Yet further, adhesive matrix 130 may include amino acids. Leucine is an exemplary amino acid which may be incorporated into the formula. Leucine may function in the patch to synthesize sterols, and may also act to regulate blood pressure, energy levels, and hormone secretion. […] Adhesive matrix 130 may further comprises glycerin. Glycerin may act as a plasticizer and humectant to preserve the flexibility and formulaic integrity of adhesive matrix 130, and may also provide additional benefits of relieving skin irritation and reducing interference with skin oils when transdermal patch 100 is placed in contact with skin.

In the case of `CC(C)C[C@H](N)C(=O)O` [leucine, Leucine], the appetite levels entry is “reduce appetite levels”.

The values above are taken from patent publication US20250090477A1, “TRANSDERMAL PATCH PROVIDING IMPROVED PERMEABILITY AND COMPOSITION” (HydraPatch Inc., priority 2019, published 2025).
